Assay results as given in publication PMC7697191, “Identification of Novel Influenza Polymerase PB2 Inhibitors Using a Cascade Docking Virtual Screening Approach” (Molecules, 2020).

Assays:
[1] = test system: PR/8-I38T mutant (H1N1, recombinant baloxavir-resistant); type: cell-based, influenza A virus (H1N1)
[2] = test system: PR/8-R292K mutant (H1N1, recombinant oseltamivir-resistant); type: cell-based, influenza A virus (H1N1)

| SMILES | EC50 [1] | EC50 [2] |
| --- | --- | --- |
| C=CCn1cc(CNCc2noc(-c3ccc4c(c3)OCO4)n2)c(C)n1 [11D4] | 32.4 ± 1.52 µM | 21.5 ± 5.49 µM |
| C=CCn1cc(-c2cc(-c3ccc(C(=O)O)cc3)[nH]c(=N)c2C#N)cn1 [12C5] | 35.4 ± 1.02 µM | 28.6 ± 0.99 µM |
| CCSc1ncc(-c2cc(-c3c(C)nn(C)c3C)nc(N)c2C#N)cn1 [21A5] | 14.1 ± 0.47 µM | 9.27 ± 0.55 µM |
| Cc1cccnc1CCNc1nc2nonc2nc1NCc1cccs1 [21B1] | 37 ± 0.67 µM | 14.6 ± 1.44 µM |
| CCC(CC)O[C@@H]1C=C(C(=O)O)C[C@H](N)[C@H]1NC(C)=O [OC, Oseltamivir carboxylate, reference compound] |  | > 100 µM |
| O=C(O)[C@H]1C2CCC(CC2)[C@@H]1Nc1nc(-c2c[nH]c3ncc(F)cc23)ncc1F [VX-787, reference compound] | 2.34 ± 0.1 µM | 4.14 ± 0.66 µM |
